From paper PMC5259778, “Candidate pheromone receptors of codling moth Cydia pomonella respond to pheromones and kairomones” (Scientific Reports, 2017)

How the values were obtained:
CpomOrco + OR1 = assay: Whole-cell patch-clamp recording of HEK293T cells expressing CpomOrco + OR1; type: cell-based, Cydia pomonella; details: VUAA3 200 μM, n = 37
Procedure: To test transient expression of CpomORs for calcium imaging or patch-clamp recording experiments, 35-mm petri dishes containing semi-confluent HEK293T cells were transiently transfected. To transfect cells with CpomOrco, we used 1.0 μg of pcDNA5/TO/CpomOrco DNA. In order to promote expression of the OR[51], we used double aliquots for pcDNA5/TO/CpomOR DNAs (2.0 μg), combined with 1.0 μg of pcDNA5/TO/CpomOrco for co-transfections (CpomOrco + ORs). […] In patch-clamp recordings, 1.0 μg of a separate plasmid DNA (pXOOM, Clontech) carrying the coding sequence for a green fluorescent protein (GFP) was used to report expression. In order to report candidate OR-expressing cells, expression of both fluorescent reporter genes was under the regulation of the same promoter for CpomOR genes (CMV). Transfection DNAs were dissolved in 100 μL sterile DMEM, mixed with 3.0 μL Calfectin (SignaGen, Rockville, MD, USA) following the recommended protocol. […] The currents were measured with a 200B patch-clamp amplifier (Molecular Devices) and a digital interface (Digidata 1320 A, Molecular Devices), low pass filtered at 5.0 kHz, sampled at 1-2 kHz. […] The OR channel current noise was recorded using outside-out patches excised from HEK293T cells and evoked by stimulation with 250 μM VUAA3. […]

[1] = system: Un-transfected cells (HEK293T); assay: Whole-cell patch-clamp recording of un-transfected HEK293T cells; type: cell-based, human; details: 12 cells tested
Procedure: The OR channel activity was investigated using whole-cell and outside-out patch-clamp recordings. The currents were measured with a 200B patch-clamp amplifier (Molecular Devices) and a digital interface (Digidata 1320 A, Molecular Devices), low pass filtered at 5.0 kHz, sampled at 1-2 kHz. […] OR channel related currents were investigated at a holding potential of -50/+50 mV unless otherwise specified. The polarity of the currents/voltages was presented relative to intracellular membrane surface. Appropriate corrections for liquid junction potentials were made when necessary. Patch pipettes were fabricated from borosilicate capillary glass (BF150-86-10, Sutter Instrument, CA, USA) using a Flaming-Brown micropipette puller (P-87, Sutter Instrument). Only patches with initial cell-attached seal resistance estimated higher than 1.0 GOhms were used in the experiments. Intracellular (pipette) solution for whole-cell experiments was NaCl 140 mM, EGTA 0.5 mM, Hepes 10 mM, pH 7.4 (adjusted with Tris-base, standard Na^+ 140 mM), while bath solution was usually NaCl 140 mM, CaCl2 1.0 mM, MgCl2 0-1.0 mM, KCl 5.0 mM, Hepes 10 mM, pH 7.4 (adjusted with Tris-base or NaOH). The OR channel current noise was recorded using outside-out patches excised from HEK293T cells and evoked by stimulation with 250 μM VUAA3. […]

CCn1c(SCC(=O)Nc2ccc(C(C)C)cc2)nnc1-c1ccncc1 [VUAA3, acetamide,2-[[4-ethyl-5-(4-pyridinyl)-4H-1,2,4-triazol-3-yl]thio]-N-[4-(1-methylethyl)phenyl]-]
inward current amplitude, variation (CpomOrco + OR1): −49 to −1165 pA
inward current mean amplitude (CpomOrco + OR1): −431 ± 54 pA
sensitivity of un-transfected cells [1]: not sensitive
